Results from US20260159512A1, “BCAT2 INHIBITORS” (AGIOS PHARMACEUTICALS, INC., priority 2021, published 2026).

Assays:
Details in all cases: average where tested multiple times
hBCAT1 = target: T1, hBCAT1 (Homo sapiens, UniProt P54687); assay: BCAT1 in vitro enzyme inhibition assay (resazurin/diaphorase-coupled fluorescence); format: biochemical
T1 sequence (P54687 1-386): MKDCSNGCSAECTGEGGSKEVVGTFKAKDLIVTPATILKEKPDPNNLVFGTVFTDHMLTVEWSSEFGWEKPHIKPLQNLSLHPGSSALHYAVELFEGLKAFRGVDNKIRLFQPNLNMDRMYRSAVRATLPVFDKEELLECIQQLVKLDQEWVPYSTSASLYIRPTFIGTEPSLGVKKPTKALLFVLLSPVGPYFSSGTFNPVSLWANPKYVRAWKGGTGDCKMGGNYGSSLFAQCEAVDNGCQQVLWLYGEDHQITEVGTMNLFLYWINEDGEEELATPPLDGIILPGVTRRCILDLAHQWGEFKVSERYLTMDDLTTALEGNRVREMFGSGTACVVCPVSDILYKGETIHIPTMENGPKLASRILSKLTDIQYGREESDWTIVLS
Method in brief: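 Ten-point, 3-fold compound series (top final 100 μM, delivered 1:50 from 50× DMSO stocks) tested against hBCAT1. Inhibition detected via diaphorase-coupled resazurin fluorescence, duplicate wells, with values from repeated runs averaged.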

BCAT2 [1] = target: T2, BCAT2 (Homo sapiens, UniProt O15382); assay: BCAT2 in vitro cell inhibition using engineered A549 cells (KMV cell assay, 13C6-KMV by LC-MS/MS); format: cell-based; set-up: The result was an engineered A549 cell line that expressed endogenous BCAT2; endogenous in cells; host or cells: A549 cells with MUT and BCAT1 knocked out by CRISPR/CAS9
T2 sequence (O15382 28-392): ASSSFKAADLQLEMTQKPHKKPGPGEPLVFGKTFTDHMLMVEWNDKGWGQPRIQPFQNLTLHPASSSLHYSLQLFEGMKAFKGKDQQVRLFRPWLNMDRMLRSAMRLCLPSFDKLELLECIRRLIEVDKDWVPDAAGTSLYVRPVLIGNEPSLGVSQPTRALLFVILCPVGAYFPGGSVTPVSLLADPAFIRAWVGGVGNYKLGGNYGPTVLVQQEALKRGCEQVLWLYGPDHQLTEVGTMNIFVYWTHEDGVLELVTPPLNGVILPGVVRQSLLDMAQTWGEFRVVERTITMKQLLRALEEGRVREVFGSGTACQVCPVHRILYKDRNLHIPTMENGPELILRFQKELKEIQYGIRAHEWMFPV

BCAT2 [2] = target: T2, BCAT2; assay: BCAT2 in vitro enzyme inhibition assay (resazurin/diaphorase-coupled fluorescence); format: biochemical
Method in brief: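 Coupled fluorescence readout: glutamate formed from L-leucine/α-ketoglutarate transamination drives GDH/NAD/diaphorase reduction of resazurin (Ex 540/Em 590). Human BCAT2 was first exposed 1 h at room temperature to compound, top final 100 μM in 3-fold, 10-point series; substrate reaction ran 1 h before SDS quench, in technical duplicate with DMSO max and enzyme-free min controls.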

| Compound | IC50 (hBCAT1) | IC50 (BCAT2 [1]) | IC50 (BCAT2 [2]) |
| --- | --- | --- | --- |
| O=C(N[C@H]1CCC[C@@H](n2c(-c3ccccc3F)nc3cnc(-c4cccnc4)cc32)C1)c1ncc(Cl)s1 [Example 180, 5-chloro-N-((1S,3R)-3-(2-(2-fluorophenyl)-6-(pyridin-3-yl)-1H-imidazo[4,5-c]pyridin-1-yl)cyclohexyl)thiazole-2-carboxamide] | 1000 to 5000 nM | 100 to 500 nM | ≤ 100 nM |
| Cn1ccc(-c2cc3c(cn2)nc(-c2ccccc2F)n3[C@@H]2CCC[C@H](NC(=O)c3ncc(Cl)s3)C2)n1 [Example 181, 5-chloro-N-((1S,3R)-3-(2-(2-fluorophenyl)-6-(1-methyl-1H-pyrazol-3-yl)-1H-imidazo[4,5-c]pyridin-1-yl)cyclohexyl)thiazole-2-carboxamide] | < 500 nM | ≤ 100 nM | ≤ 100 nM |
| O=C(N[C@H]1CCC[C@@H](n2c(-c3ccccn3)nc3cnc(-c4nc[nH]n4)cc32)C1)c1ncc(Cl)s1 [Example 184, 5-chloro-N-((1S,3R)-3-(2-(pyridin-2-yl)-6-(1H-1,2,4-triazol-3-yl)-1H-imidazo[4,5-c]pyridin-1-yl)cyclohexyl)thiazole-2-carboxamide] | < 500 nM | ≤ 100 nM | ≤ 100 nM |
| O=C(N[C@H]1CCC[C@@H](n2c(-c3ccccc3F)nc3cnc(-c4ncccn4)cc32)C1)c1ncc(Cl)s1 [Example 185, 5-chloro-N-((1S,3R)-3-(2-(2-fluorophenyl)-6-(pyrimidin-2-yl)-1H-imidazo[4,5-c]pyridin-1-yl)cyclohexyl)thiazole-2-carboxamide] | < 500 nM | ≤ 100 nM | ≤ 100 nM |
| Cc1cn[nH]c1-c1cc2c(cn1)nc(-c1ccccc1F)n2[C@@H]1CCC[C@H](NC(=O)c2ncc(Cl)s2)C1 [Example 186, 5-chloro-N-((1S,3R)-3-(2-(2-fluorophenyl)-6-(4-methyl-1H-pyrazol-5-yl)-1H-imidazo[4,5-c]pyridin-1-yl)cyclohexyl)thiazole-2-carboxamide] | < 500 nM | ≤ 100 nM | ≤ 100 nM |
| CC(C)C(=O)c1nc2cnc(-c3nc[nH]n3)cc2n1[C@@H]1CCC[C@H](NC(=O)c2ncc(Cl)s2)C1 [Example 187, 5-chloro-N-((1S,3R)-3-(2-isobutyryl-6-(1H-1,2,4-triazol-3-yl)-1H-imidazo[4,5-c]pyridin-1-yl)cyclohexyl)thiazole-2-carboxamide] | 1000 to 5000 nM | 100 to 500 nM | 100 to 500 nM |
| O=C(N[C@H]1CCC[C@@H](n2c(-c3ccccc3F)nc3cnc(-c4cccnn4)cc32)C1)c1ncc(Cl)s1 [Example 188, 5-chloro-N-((1S,3R)-3-(2-(2-fluorophenyl)-6-(pyridazin-3-yl)-1H-imidazo[4,5-c]pyridin-1-yl)cyclohexyl)thiazole-2-carboxamide] | 1000 to 5000 nM | 100 to 500 nM | ≤ 100 nM |
| O=C(N[C@H]1CCC[C@@H](n2c(-c3ccccc3F)nc3cnc(-c4cnn[nH]4)cc32)C1)c1ncc(Cl)s1 [Example 189, 5-chloro-N-((1S,3R)-3-(2-(2-fluorophenyl)-6-(1H-1,2,3-triazol-5-yl)-1H-imidazo[4,5-c]pyridin-1-yl)cyclohexyl)thiazole-2-carboxamide] | < 500 nM | ≤ 100 nM | ≤ 100 nM |
| O=C(N[C@H]1CCC[C@@H](n2c(Oc3ccccc3F)nc3cnc(-c4nc[nH]n4)cc32)C1)c1ncc(Cl)s1 [Example 192, 5-chloro-N-((1S,3R)-3-(2-(2-fluorophenoxy)-6-(1H-1,2,4-triazol-3-yl)-1H-imidazo[4,5-c]pyridin-1-yl)cyclohexyl)thiazole-2-carboxamide] | 1000 to 5000 nM | > 1000 nM | ≤ 100 nM |
| O=C(N[C@H]1CCC[C@@H](n2c(-c3ccccc3F)nc3cnc(N4CCCC4CO)cc32)C1)c1ncc(Cl)s1 (stereo partly drawn) [Example 196, 5-chloro-N-((1S,3R)-3-(2-(2-fluorophenyl)-6-(2-(hydroxymethyl)pyrrolidin-1-yl)-1H-imidazo[4,5-c]pyridin-1-yl)cyclohexyl)thiazole-2-carboxamide] | < 500 nM | ≤ 100 nM | ≤ 100 nM |
| O=C(N[C@H]1CCC[C@@H](n2c(-c3ccccc3F)nc3cnc(N4CCC(O)C4)cc32)C1)c1ncc(Cl)s1 (stereo partly drawn) [Example 199, 5-chloro-N-((1S,3R)-3-(2-(2-fluorophenyl)-6-(3-hydroxypyrrolidin-1-yl)-1H-imidazo[4,5-c]pyridin-1-yl)cyclohexyl)thiazole-2-carboxamide] | > 5000 nM | > 1000 nM | ≤ 100 nM |
| O=C(N[C@H]1CCC[C@@H](n2c(-c3ccccc3F)nc3cnc(-c4noc(=O)[nH]4)cc32)C1)c1ncc(Cl)s1 [Example 202, 5-chloro-N-((1S,3R)-3-(2-(2-fluorophenyl)-6-(5-oxo-4,5-dihydro-1,2,4-oxadiazol-3-yl)-1H-imidazo[4,5-c]pyridin-1-yl)cyclohexyl)thiazole-2-carboxamide] | < 500 nM | ≤ 100 nM | ≤ 100 nM |
| O=C(N[C@H]1CCC[C@@H](n2c(-c3ccccc3F)nc3cnc(-c4n[nH]c(=O)o4)cc32)C1)c1ncc(Cl)s1 [Example 203, 5-chloro-N-((1S,3R)-3-(2-(2-fluorophenyl)-6-(5-oxo-4,5-dihydro-1,3,4-oxadiazol-2-yl)-1H-imidazo[4,5-c]pyridin-1-yl)cyclohexyl)thiazole-2-carboxamide] | < 500 nM | 100 to 500 nM | ≤ 100 nM |
| O=C(N[C@H]1CCC[C@@H](n2c(-c3ccccc3F)nc3cnc(-c4ccccc4)cc32)C1)c1ncc(Cl)s1 [Example 204, 5-chloro-N-((1S,3R)-3-(2-(2-fluorophenyl)-6-phenyl-1H-imidazo[4,5-c]pyridin-1-yl)cyclohexyl)thiazole-2-carboxamide] | 500 to 1000 nM | 100 to 500 nM | ≤ 100 nM |
| CC(C)Cc1nc2cnc(-c3cccc(F)n3)cc2n1[C@@H]1CCC[C@H](NC(=O)c2ncc(Cl)s2)[C@H]1O [Example 209, 5-chloro-N-((1S,2R,3R)-3-(6-(6-fluoropyridin-2-yl)-2-isobutyl-1H-imidazo[4,5-c]pyridin-1-yl)-2-hydroxycyclohexyl)thiazole-2-carboxamide] | < 500 nM | 100 to 500 nM | ≤ 100 nM |
| Cc1coc(-c2cc3c(cn2)nc(CC(C)C)n3C2CCCC(NC(=O)c3ncc(Cl)s3)C2O)n1 (stereo not drawn) [Example 211, 5-chloro-N-(2-hydroxy-3-(2-isobutyl-6-(4-methyloxazol-2-yl)-1H-imidazo[4,5-c]pyridin-1-yl)cyclohexyl)thiazole-2-carboxamide] | < 500 nM | 100 to 500 nM | ≤ 100 nM |
| CC(C)Cc1nc2cnc(-c3cc(C(F)(F)F)n[nH]3)cc2n1[C@@H]1CCC[C@H](NC(=O)c2ncc(Cl)s2)[C@H]1O [Example 216, 5-chloro-N-((1S,2R,3R)-2-hydroxy-3-(2-isobutyl-6-(3-(trifluoromethyl)-1H-pyrazol-5-yl)-1H-imidazo[4,5-c]pyridin-1-yl)cyclohexyl)thiazole-2-carboxamide] | 1000 to 5000 nM | > 1000 nM | 100 to 500 nM |
| O=C(NC1CCCC(n2c(-c3ncccc3F)nc3cnc(-c4ccccn4)cc32)C1O)c1ncc(Cl)s1 (stereo not drawn) [Example 220, 5-chloro-N-(3-(2-(3-fluoropyridin-2-yl)-6-(pyridin-2-yl)-1H-imidazo[4,5-c]pyridin-1-yl)-2-hydroxycyclohexyl)thiazole-2-carboxamide] | < 500 nM | ≤ 100 nM | ≤ 100 nM |
| CC(C)Cc1nc2cnc(-n3cc(F)cn3)cc2n1[C@@H]1C[C@@H](O)C[C@H](NC(=O)c2ncc(Cl)s2)C1 [Example 221, 5-chloro-N-((1R,3S,5S)-3-(6-(4-fluoro-1H-pyrazol-1-yl)-2-isobutyl-1H-imidazo[4,5-c]pyridin-1-yl)-5-hydroxycyclohexyl)thiazole-2-carboxamide] | < 500 nM | 100 to 500 nM | ≤ 100 nM |
